The results in this text go back to US9120787B2, “HIV replication inhibitors” (priority 2011, dated 2015).

The test system of one data set is HIV-1 K103N, Y181C (A17). Description: HIV-1 K103N, Y181C (A17) replication in PBMCs. It is filed as cell-based. As to conditions: for IC50: Human immunodeficiency virus 1, PBMC; for TI (TC50/IC50): Virus A17 (K103N, Y181C) in PBMCs. The source says:
In another embodiment of the present disclosure compounds are provided which inhibit the replication of HIV strains resistant to NNRTIs. Compounds in this disclosure inhibit, A17, an HIV-1 virus with mutations in the RT non-nucleoside binding pocket, K103N and Y181C, in a dose-dependent susceptibility testing manner.
The asparagine variation at residue 103 and the cysteine variation at residue 181 are known to inhibit the activity of the NNRTI's.
Evaluation Dihydropyrimidines vs. HIV-1Ba-L and HIV-1 K103N, Y181C in PBMCs

Data set [1] relates to HIV-1Ba-L. Description: Inhibition of virus replication in MAGI-CCR5 cells (β-galactosidase reporter). The data set is classed as cell-based. The following applies: HIV-1Ba-L in MAGI-CCR5 cells; for IC50: Human immunodeficiency virus 1, 48 hours, β-galactosidase reporter expression, read-out: IC50. The essentials:
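HeLa-derived MAGI-CCR5 cells (high CD4/CCR5, HIV-1 LTR-driven β-galactosidase) plated at 1.0×10^4 cells/well the day before infection with HIV-1Ba-L. Compounds tested at six concentrations in triplicate, with parallel uninfected plates for cytotoxicity.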

Data set [2] deals with HIV-1Ba-L. Briefly: HIV-1Ba-L replication in PBMCs (supernatant RT end-point). In a few lines:
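Pooled PHA-stimulated human PBMCs (5×10^4 cells/well) were infected with HIV-1Ba-L at MOI 0.1 with nine ½-log compound dilutions and cultured seven days at 37° C. Supernatant RT activity was measured by ^3H-TTP incorporation on poly rA:oligo dT (60 minutes, 37° C) and counted by scintillation.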

The nature of data set [3]: Cytotoxicity by MTS staining in uninfected MAGI-CCR5 cells. It is filed as cell-based. The following applies: human, read-out: TC50. In a few lines:
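Uninfected MAGI-CCR5 cells (HeLa-CD4-LTR-β-gal derived, expressing CD4/CCR5) plated at 1.0×10^4 cells/well the day before, then exposed to compounds at six concentrations in triplicate alongside parallel infected assays. Viability read by MTS staining.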

Data set [4] in a line: Cytotoxicity by MTS staining in PBMCs. The data set is classed as cell-based. As to conditions: human, peripheral blood mononuclear cells (PBMC), read-out: TC50. As for the experimental part:
Cytotoxicity was assessed by MTS staining. At assay end-point, PBMC were stained with the addition of […] of the soluble tetrazolium-based dye MTS to determine cell viability and quantify compound toxicity. The plates were incubated 4 to 6 hrs at 37° C. Following incubation, the activity was assessed by reading absorbance values at 490/650 nm.

Setting [5] is: Human immunodeficiency virus 1, BAL, PBMC.
Where [6] appears, read: Human immunodeficiency virus 1, PBMC, 168 h.
[7] abbreviates: Virus Ba-L in PBMCs (Ba-L vs A17 comparison).

Where two headings read alike, the source gives them in different places.

As for `CC1=C(c2nc(-c3ccc(F)cc3)cs2)C(Cc2ccccc2)NC(=O)N1` (stereo not shown) [Example 89], the IC50 with HIV-1 K103N, Y181C (A17) was over 100 µM; with HIV-1Ba-L [1] it was over 100 µM; in the data set on HIV-1Ba-L [2] (setting [5]), over 100 µM; in the data set on HIV-1Ba-L [2] (setting [6]), 5 to 100 µM. Further, the “TI (TC50/IC50)” value in the data set with HIV-1 K103N, Y181C (A17) is “D (D < 10.0)”; with HIV-1Ba-L [1], “D (D < 10.0)”; in the data set on HIV-1Ba-L [2] (HIV-1Ba-L in PBMCs) it was “D (D < 10.0)”; in the data set with HIV-1Ba-L [2] (setting [7]) it was “D (D < 10.0)”. Further, the CC50 at 48 h in data set [3] is at least 100 µM. Moreover, the CC50 at 7 days in data set [4] (A17 line of the table), in data set [4] (Ba-L line of the table) and in data set [4] (MTS staining) was at least 100 µM throughout.
For the compound `CC1=C(c2nc(-c3ccc(C#N)cc3)cs2)C(c2ccc(Br)nc2)NC(=O)N1` (stereo not shown) [Example 93], the IC50 in the data set on HIV-1 K103N, Y181C (A17) is over 100 µM; in the data set on HIV-1Ba-L [1] it was under 1 µM; in the data set on HIV-1Ba-L [2] (setting [5]) it was under 1 µM; in the data set with HIV-1Ba-L [2] (setting [6]), under 1 µM. The “TI (TC50/IC50)” value is recorded as “D (D < 10.0)” in the data set on HIV-1 K103N, Y181C (A17); “A (A = TI (TC50/IC50) ≧ 100.0)” with HIV-1Ba-L [1]; “A (A = TI (TC50/IC50) ≧100.0)” in the data set with HIV-1Ba-L [2] (HIV-1Ba-L in PBMCs); “A (A = TI (TC50/IC50) ≧ 100.0)” in the data set with HIV-1Ba-L [2] (setting [7]). In addition, in data set [3], the CC50 at 48 h was at least 100 µM. Also, the CC50 at 7 days in data set [4] (A17 line of the table), in data set [4] (Ba-L line of the table) and in data set [4] (MTS staining) was at least 100 µM throughout.
As for `CC1=C(c2nc(-c3ccc(C#N)cc3)cs2)C(c2cnc3ccccc3n2)NC(=O)N1` (stereo not shown) [Example 21], the IC50 in the data set with HIV-1 K103N, Y181C (A17) was over 100 µM; in the data set on HIV-1Ba-L [1], over 100 µM; with HIV-1Ba-L [2] (setting [5]), over 100 µM; in the data set on HIV-1Ba-L [2] (setting [6]), over 100 µM. Further, the “TI (TC50/IC50)” value with HIV-1 K103N, Y181C (A17) is reported as “D (D < 10.0)”; in the data set with HIV-1Ba-L [1] it was “D (D < 10.0)”; in the data set on HIV-1Ba-L [2] (HIV-1Ba-L in PBMCs) it was “D (D < 10.0)”; in the data set with HIV-1Ba-L [2] (setting [7]), “D (D < 10.0)”. Moreover, the CC50 at 48 h in data set [3] is at least 100 µM. Besides, the CC50 at 7 days in data set [4] (A17 line of the table), in data set [4] (Ba-L line of the table) and in data set [4] (MTS staining) was at least 100 µM throughout.
For the compound `CC1=C(c2nc(-c3ccc(C#N)cc3)cs2)C(c2ccc(C(F)(F)F)nc2)NC(=O)N1` (stereo not shown) [Example 96], the IC50 in the data set on HIV-1 K103N, Y181C (A17) was 5 to 100 µM; with HIV-1Ba-L [1] it was under 1 µM; in the data set with HIV-1Ba-L [2] (setting [5]), under 1 µM; in the data set on HIV-1Ba-L [2] (setting [6]), under 1 µM. Moreover, the “TI (TC50/IC50)” value is given as “D (D < 10.0)” in the data set on HIV-1 K103N, Y181C (A17); “A (A = TI (TC50/IC50) ≧ 100.0)” in the data set on HIV-1Ba-L [1]; “A (A = TI (TC50/IC50) ≧100.0)” in the data set with HIV-1Ba-L [2] (HIV-1Ba-L in PBMCs); “A (A = TI (TC50/IC50) ≧ 100.0)” in the data set with HIV-1Ba-L [2] (setting [7]). In data set [3], the CC50 at 48 h was at least 100 µM. Moreover, the CC50 at 7 days in data set [4] (A17 line of the table), in data set [4] (Ba-L line of the table) and in data set [4] (MTS staining) was at least 100 µM throughout.
Turning to `CC1=C(c2nc(-c3ccc(C#N)cc3)cs2)C(c2cc3ccccc3n2C)NC(=O)N1` (stereo not shown) [Example 11], the IC50 in the data set on HIV-1 K103N, Y181C (A17) was over 100 µM; in the data set with HIV-1Ba-L [1], under 1 µM; in the data set with HIV-1Ba-L [2] (setting [5]), under 1 µM; with HIV-1Ba-L [2] (setting [6]) it was under 1 µM. The “TI (TC50/IC50)” value in the data set with HIV-1 K103N, Y181C (A17) is reported as “D (D < 10.0)”; in the data set with HIV-1Ba-L [1] it was “A (A = TI (TC50/IC50) ≧ 100.0)”; in the data set on HIV-1Ba-L [2] (HIV-1Ba-L in PBMCs), “A (A = TI (TC50/IC50) ≧100.0)”; in the data set on HIV-1Ba-L [2] (setting [7]), “A (A = TI (TC50/IC50) ≧ 100.0)”. Moreover, the “effect of RT changes K103N and Y181C on anti-viral activity” value in the data set with HIV-1 K103N, Y181C (A17) (virus with K103 to Asparagine and Y181 to cysteine) was “inhibit the anti-viral activity”. Further, the CC50 at 48 h in data set [3] was at least 100 µM. The CC50 at 7 days in data set [4] (A17 line of the table), in data set [4] (Ba-L line of the table) and in data set [4] (MTS staining) was at least 100 µM throughout.
For the compound `CC1=C(c2nc(-c3ccc(C#N)cc3)cs2)C(c2cc3ccccc3[nH]2)NC(=O)N1` (stereo not shown) [Example 10], the IC50 with HIV-1 K103N, Y181C (A17) lay in the range of 5 to 100 µM; in the data set on HIV-1Ba-L [1], 1 to 5 µM; in the data set on HIV-1Ba-L [2] (setting [5]) it was 1 to 5 µM; with HIV-1Ba-L [2] (setting [6]), 1 to 5 µM. In addition, the “TI (TC50/IC50)” value is on record as “D (D < 10.0)” with HIV-1 K103N, Y181C (A17); “C (C < 50.0 to 10.0)” with HIV-1Ba-L [1]; “C (C < 50.0-10.0)” with HIV-1Ba-L [2] (HIV-1Ba-L in PBMCs); “B (B < 100.0-50.0)” with HIV-1Ba-L [2] (setting [7]). For the same compound, the CC50 at 48 h in data set [3] was under 50 µM. For the same compound, the CC50 at 7 days in data set [4] (A17 line of the table) was at least 100 µM; in data set [4] (Ba-L line of the table), at least 100 µM; in data set [4] (MTS staining), 50 to 100 µM.
For the compound `COc1ccc(-c2csc(C3=C(C)NC(=O)NC3c3ccc(F)c([N+](=O)[O-])c3)n2)cc1` (stereo not shown) [Example 42], the IC50 is 5 to 100 µM in the data set on HIV-1 K103N, Y181C (A17); over 100 µM with HIV-1Ba-L [1]; 5 to 100 µM in the data set on HIV-1Ba-L [2] (setting [5]); 5 to 100 µM with HIV-1Ba-L [2] (setting [6]). Further, the “TI (TC50/IC50)” value in the data set with HIV-1 K103N, Y181C (A17) is recorded as “D (D < 10.0)”; in the data set with HIV-1Ba-L [1], “D (D < 10.0)”; with HIV-1Ba-L [2] (HIV-1Ba-L in PBMCs) it was “D (D < 10.0)”; in the data set on HIV-1Ba-L [2] (setting [7]) it was “D (D < 10.0)”. In addition, the CC50 at 48 h in data set [3] was at least 100 µM. For the same compound, the CC50 at 7 days in data set [4] (A17 line of the table), in data set [4] (Ba-L line of the table) and in data set [4] (MTS staining) was at least 100 µM in each case.
